According to the METLIN SMRT retention time set (Domingo-Almenara et al. 2019):

Test: gradient 5% acetonitrile 3 min, to 50% in 2 min, to 85% in 15 min, held 3 min, 100 µL/min
Conditions: column: Zorbax Extend-C18 2.1 x 50 mm; eluents: water / acetonitrile, 0.1% formic acid
Summary of the method: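 Standards, all pure, were combined into mixtures of ~100 molecules and run at 100 μL/min on a Zorbax Extend-C18 column (2.1 × 50 mm, 1.8 μm) with water and acetonitrile, each containing 0.1% formic acid. A coupled quadrupole time-of-flight mass spectrometer operated in positive and negative ionization mode. Retention time values come from computationally picked adduct peaks, each inspected manually.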

Compound	RP-LC retention time [s]
CCCN1CCN(CCCNC(=O)c2noc3c2CCCCC3)CC1	594
COc1ccc(C2CC(=O)N(c3ccc(F)c(C)c3)C(=O)C2)cc1	930
COc1ccc2c(c1)C1(CCN(S(=O)(=O)c3ccc(F)cc3F)C1)C(=O)N2C (centres undefined)	927
COc1ccc(N2CCN(C(c3cccs3)C(C)NC(=O)C(=O)N3CCCC3)CC2)cc1 (centres undefined)	670
CC1CC(C)CN(S(=O)(=O)c2cccc(-c3cn4cc(Cl)ccc4n3)c2)C1 (centres undefined)	1090
Cc1noc(-c2ccnc(-n3ncc(C(=O)NC4CCCC4)c3C)c2)n1	836
COc1ccc(C2CC(=O)Nc3c(C(=O)O)cn(-c4ccc(F)cc4)c32)cc1OC (centres undefined)	734
Cc1nc(CC(=O)Nc2nc(-c3ccc(F)cc3)c(C)s2)cs1	894
Cn1c(=O)c(N2CCCC(C(=O)N3CCCCCC3)C2)nc2cccnc21 (centres undefined)	918
CC1CCN(c2ncnc3c2cnn3CC(=O)Nc2ccc(Cl)cc2)CC1	697
CCOc1ccc(-c2csc(Nc3ccccn3)n2)cc1	910
CN(C)C(=O)c1n[nH]c2c1CN(C(=O)c1cccc(Cl)c1)CC2	642
CC1CCN(C(=O)C(=O)NCc2n[nH]c(=O)c3ccccc23)CC1	639
Cc1ccc(CNC(=O)Cc2c(C(=O)O)c(C)cn2C)o1	695
O=C(NC1CCCCCC1)c1nnc(-c2ccc(S(=O)(=O)N3CCCCC3)cc2)o1	1100
O=C(NC1CC1)C1CCN(c2nnc(-c3ccccc3)o2)CC1	657
Cc1nc(-c2cccs2)c(CC(=O)N2CCN(c3ccccn3)CC2)s1	607
Cc1ccc(C2=NC3(CCN(C(=O)c4ccc5[nH]ccc5c4)CC3)ON2)cc1	790
Cc1ccnc(N2CCC(C(=O)NCc3ccc4c(c3)OCO4)CC2)n1	658
Cc1ccc(C(=O)N2CCN(c3ccc(-c4noc(C5CC5)n4)cc3)CC2)s1	1010
CCCNC(=O)C1CC(=O)N(c2n[nH]c3cccc(F)c23)C1 (centres undefined)	626
CCOC(=O)c1cc(S(=O)(=O)N2CCCC2C(=O)NC2CCC(C)CC2)cn1C (centres undefined)	966
Cc1cccc(NC(=O)c2cn3c(n2)CCCC3)c1C	603
O=S(=O)(c1ccc(-n2cnnn2)cc1)N1CCN(c2ccccn2)CC1	596
O=S(=O)(c1ccc(F)cc1)N1CCC2(CC1)NCCN=C2NCc1ccccc1F	692

Compound	RP-LC retention time [s]
Cc1nc(-c2cc(S(=O)(=O)Nc3ccc(Br)c(C)c3)c(C)s2)cs1	1120
COc1ccc(CCNC(=O)C2CN(S(C)(=O)=O)CC23CCCCC3)cc1OC (centres undefined)	763
CCOc1ccc(N2CC(CNC(=O)Nc3cc(OC)c(OC)c(OC)c3)CC2=O)cc1 (centres undefined)	668
CCC(=O)Nc1ccc(C2(C(=O)NC(C)CC)CCCCC2)cc1 (centres undefined)	845
COc1ccc(Cl)cc1NC(=O)N1CCC(n2c(C)nc3cccnc32)CC1	682
Cc1ccc(-c2n[nH]c3c2CN(S(=O)(=O)c2cn(C)cn2)CC3)cc1	687
CCN(CC)S(=O)(=O)c1ccc2c(c1)N(CC(=O)NCc1ccc(C)cc1)C(=O)C1CCCCN21 (centres undefined)	1030
Cc1ccc(NC(=O)N2CCC(c3nc(C(=O)N4CCCC4)c(C)o3)CC2)cc1	759
COc1cccc(C(=O)N(CN2CCCC2=O)c2cccc(C(F)(F)F)c2)c1	757
CCn1nc2ccc(S(=O)(=O)N3CCCCC3)cn2c1=O	744
O=C(c1ccc(F)cc1F)N1CCC2(CC1)OCC(C(=O)N1CCCC1)N2C(=O)c1ccccc1 (centres undefined)	698
Cc1cc(C)cc(NC(=O)C2CC(=O)N(CCc3c[nH]c4ccc(F)cc34)C2)c1 (centres undefined)	889
O=C(CCn1cnc2cc(-c3noc(-c4ccc5c(c4)OCO5)n3)ccc21)N1CCCC1	727
Cc1ccc(N2C(=O)CN(S(=O)(=O)c3ccc(C)cc3)CC2(C)C(=O)NC2CCCC2)cc1 (centres undefined)	983
CCC(C)NC(=O)c1cnn(-c2cc(-c3nc(C4CC4)no3)ccn2)c1C (centres undefined)	973
CCn1c(=O)c(N2CCC(C(=O)NCCN3CCCCCC3)CC2)nc2cccnc21	646
O=C(Cn1nc2n(c1=O)CCCC2)Nc1cccc(F)c1	638
Cc1ccc(OCC(=O)N2CCN(c3nc(CN4CCOCC4)cs3)CC2)cc1	640
Cc1cc(N2CCN(S(=O)(=O)c3ccc(Cl)cc3)CC2)nc(NC2CCCCC2)n1	884
COCCC(=O)N1CC2CN(S(=O)(=O)c3ccc(C)cc3)CC(C1)O2	684
CCN1C(=O)c2cc(C(=O)Nc3ccccc3C)nn2CC1(C)C(=O)NC1CCCC1 (centres undefined)	807
N#Cc1cccc(-c2nc(-c3cccc(-c4ccn[nH]4)c3)no2)c1	920
CCOc1cc(=O)n2c(c1C(=O)N1CCN(C3CCCCC3)CC1)CCCCC2	590
CC1(C(=O)NCc2ccc(F)cc2)CCCN(C(=O)Nc2cccc(Cl)c2)C1 (centres undefined)	967

Other lines, results leading:

RP-LC retention time [s]	Compound
911	CCCn1c(-c2cccc(C(=O)NCc3ccccc3C(F)(F)F)c2)nc2cccnc21
829	COc1ccccc1-c1noc(C2CCCN2C(=O)c2n[nH]c3ccccc23)n1 (centres undefined)
780	Cc1ccc(CN2C(=O)COC[C@H]2C(=O)Nc2ccc3c(c2)OCCO3)cc1
838	Cc1oc2ncn(CC(=O)N3CCCc4ccccc43)c(=O)c2c1C
732	Cc1cccc(CN2CCCN(c3ncccc3-c3nc(C4CC4)no3)CC2)c1
602	CCN(CC)CCCNC(=O)C1c2ccccc2C(=O)N(C)C1c1cccs1 (centres undefined)
1080	O=S(=O)(NCc1nc(-c2cccc(-c3csc(C4CC4)n3)c2)no1)c1ccccc1
694	CCCn1c(CCNC(=O)c2c(F)cccc2F)nc2cccnc21
1060	COc1ccccc1-c1noc(Cn2cnc3c(cnn3-c3ccc(Br)cc3)c2=O)n1
810	Cc1cccc(CN2CCCn3nc(C(=O)NCc4ccco4)cc3C2=O)c1
878	O=C(c1ccc2c(=O)n3c(nc2c1)CCCC3)N1CCC(Cc2ccccc2)CC1
640	CCC(=O)N1c2ccc(S(=O)(=O)CCC(=O)NC3CCN(Cc4ccccc4)CC3)cc2CC1C (centres undefined)
750	Cc1ccc(NC(=O)N2CCC3(CC2)NC(=O)c2ccccc2O3)c(C)c1
816	O=C(NCc1cccs1)C1CCCN(c2nc3ccsc3c(=O)n2-c2ccccc2)C1 (centres undefined)
807	CCC(C)Nc1cc(C)nc2c(C)c(-c3ccc(Cl)cc3)nn12 (centres undefined)
1030	CCCn1cc(CCNS(=O)(=O)c2ccc(C(C)C)cc2)c2cccnc21
624	CCC(O)c1nc2ccccc2n1CC(=O)N(C)c1ccccc1 (centres undefined)
1010	Cc1ccc(C)c(N2CCN(c3ccnc(SCC(=O)Nc4c(C)cccc4C)n3)CC2)c1
978	Cc1ccc(CNC(=O)C2(C)CCCN(C(=O)Nc3cccc(C)c3C)C2)cc1 (centres undefined)
700	Cc1cccc(Nc2c(-c3ccc(O)cc3)nc3ncccn23)c1

RP-LC retention time [s]	Compound
933	CCOc1ccccc1NC(=O)Cn1c(=O)n(-c2ccc(F)cc2)c(=O)c2c1cc(C)n2C
938	O=C(NCC(O)c1ccc(C(F)(F)F)cc1)C(c1ccccc1)c1ccccc1 (centres undefined)
630	COc1ccc(C(=O)NCC(=O)Nc2nc3ccccc3[nH]2)c(C)c1
677	O=C(CCc1c(-c2ccc(F)cc2)nc2ccccn12)NCc1cccc(Br)c1
865	CCN1C(=O)c2ccccc2Sc2cc(-c3noc(CNC(=O)c4ccco4)n3)ccc21
755	COc1ccc(C(C)NC(=O)c2cn3nc(Cl)ccc3n2)cc1OC (centres undefined)
889	CSc1ccc(CNC(=O)c2nnc(-c3ccc(S(=O)(=O)N(C)C)cc3)o2)cc1
834	COc1cccc(CNC(=O)Cn2c(C)cc(-c3nnc(C4CCC4)o3)c2C)c1
902	CC(C)n1c(=O)oc2cc(S(=O)(=O)N3CCN(C(=O)C4(c5ccccc5)CC4)CC3)ccc21
1040	COc1ccc(OC)c(-c2csc(NC(=O)c3ccccc3)n2)c1
946	CCCn1cc(S(=O)(=O)Nc2cc(C)cc(C)c2)c2cccnc21
684	CC(=O)Nc1ccc(C(=O)NCc2ccc(C)o2)c(N2CCOCC2)c1
992	Cc1ccc2oc(=O)n(Cc3noc(C(=O)NCC(C)c4ccccc4)n3)c2c1 (centres undefined)
625	Cc1ccc(CN2CCC(CNC(=O)c3cc(=O)n(C)c4c3c(=O)n(C)c(=O)n4C)CC2)cc1
861	Cc1c(C(=O)C(=O)Nc2ccc3c(c2)OCCO3)c2ccccc2n1C
669	CCc1nn2c(CNC(=O)c3cc(F)ccc3Cl)c(C)nc2s1
706	CCN1C(=O)Cc2cc(C(=O)NCc3ccccc3)ccc21
960	Cc1ccc(C)c(NS(=O)(=O)c2ccc(-c3nnc(C4CCC4)o3)o2)c1
996	Cc1ccc(C)c(NS(=O)(=O)c2ccc(-c3c(C)noc3C)cc2)c1
903	Cc1ccc(C(=O)NCCc2c[nH]c3ccc(Cl)cc23)cc1-n1nnc2cccnc21
